Measured values taken from patent US9493468B2, “Antifungal 5,6-dihydro-4H-pyrrolo[1,2-a][1,4]benzo-diazepines and 6H-pyrrolo[1,2-a][1,4]benzodiazepines substituted with heterocyclic derivatives” (Janssen Pharmaceutica NV, priority 2011, dated 2016).

Experiments:
Format in all cases: cell-based
[1] = system: Candida parapsilosis; test: Antifungal activity in vitro, resazurin growth inhibition: Candida parapsilosis (B66126)
Description: (§1) The standard susceptibility screen is performed in 96-well plates (U-bottom, Greiner Bio-One). Serial dilutions (2-fold or 4-fold) of 20 mM compound stock solutions are made in 100% DMSO, followed by an intermediate dilution step in water. These serial dilutions (10 μl) are then spotted onto test-plates that can be stored in the dark at 4° C. for a maximum period of 2 weeks. An adequate broad dose-range is included with 64 μM as the highest in-test concentration. The culture medium RPMI-1640 is supplemented with L-glutamine, 2% glucose and buffered with 3-(N-morpholino)-propanesulfonic acid (MOPS) at pH 7.0±0.1.
(§2) The different fungal species/isolates (Table 3a) are cryopreserved and 1/1000 diluted in medium just prior to use. A standard inoculum of 200 μl containing 10^3 colony-forming unit (cfu) is then added to each well. A positive control (100% growth=fungal culture without antifungal) and a negative control (0% growth ═RPMI-MOPS medium) are included on each plate. Optimal incubation time and temperature are dependent on the fungal species and vary from 24 h for yeasts (37° C.) to one week or more for dermatophytes (27° C.). Inhibition of fungal growth is measured after adding 10 μl of 0.005% (w/v) resazurin (Sigma Aldrich) to each well, based on the principle that living cells convert the non-fluorescent blue resazurin into the pink and fluorescent resorufin, allowing fluorimetric reading (λex 550 nm and λem 590 nm) after an additional incubation period (‘resa’ time mentioned in Table 3a).

[2] = system: Trichophyton mentagrophytes; test: Antifungal activity in vitro, resazurin growth inhibition: Trichophyton mentagrophytes (B70554)
Description: as §1, §2

[3] = system: Microsporum canis; test: Antifungal activity in vitro, resazurin growth inhibition: Microsporum canis (B68128)
Description: as §1, §2

[4] = system: Sporothrix schenkii; test: Antifungal activity in vitro, resazurin growth inhibition: Sporothrix schenkii (B62482)
Description: as §1, §2

[5] = system: Aspergillus fumigatus; test: Antifungal activity in vitro, resazurin growth inhibition: Aspergillus fumigatus (B42928)
Description: as §1, §2

[6] = system: Trichophyton rubrum; test: Antifungal activity in vitro, resazurin growth inhibition: Trichophyton rubrum (B68183)
Description: as §1, §2

[7] = system: Cryptococcus neoformans; test: Antifungal activity in vitro, resazurin growth inhibition: Cryptococcus neoformans (B66663)
Description: as §1, §2

SMILES	Inf. D: Candida parapsilosis B66126, pIC50 [1]	Inf. G: Trichophyton mentagrophytes B70554, pIC50 [2]	Inf. B: Microsporum canis B68128, pIC50 [3]	Inf. A: Sporothrix schenkii B62482, pIC50 [4]	Inf. E: Aspergillus fumigatus B42928, pIC50 [5]	Inf. C: Trichophyton rubrum B68183, pIC50 [6]	Inf. F: Cryptococcus neoformans B66663, pIC50 [7]
Cc1cccc2c1-n1cccc1C(c1cc3ccccc3o1)NC2.Cl (racemic) [Compound 33]	<4.19	4.98	5.22	<4.19	<4.19	4.49	4.38
Cl.Clc1ccc2oc(C3NCc4c(Cl)cccc4-n4cccc43)cc2c1 (racemic) [Compound 35]	<4.19	5.70	5.70	<4.19	<4.19	6.07	<4.19
Cc1cccc2oc(C3NCc4c(Cl)cccc4-n4cccc43)cc12.Cl (racemic) [Compound 36]	<4.19	5.21	5.19	<4.19	<4.19	5.10	<4.19
Cc1cccc2oc(C3NCc4ccc(Cl)cc4-n4cccc43)cc12.Cl (racemic) [Compound 37]	<4.19	4.41	4.38	<4.19	<4.19	5.31	5.39
Cc1ccc2cc(C3NCc4ccccc4-n4cccc43)oc2c1.Cl (racemic) [Compound 38]	<4.19	5.22	5.15	4.40	4.41	5.22	<4.19
Cc1ccc2cc(C3NCc4c(Cl)cccc4-n4cccc43)oc2c1.Cl (racemic) [Compound 39]	<4.19	5.15	5.52	5.52	5.52	5.15	<4.19
Cc1ccc2cc(C3NCc4c(C)cccc4-n4cccc43)oc2c1.Cl (racemic) [Compound 40]	<4.19	4.47	5.52	<4.19	<4.19	4.77	<4.19
Cc1ccc2cc(C3NCc4c(Cl)cc(Cl)cc4-n4cccc43)oc2c1.Cl (racemic) [Compound 41]	<4.19	<4.19	<4.19	<4.19	<4.19	4.80	<4.19
COc1cccc2cc(C3NCc4ccc(Cl)cc4-n4cccc43)oc12.Cl (racemic) [Compound 42]	<4.19	4.49	4.19	<4.19	<4.19	5.06	4.89
COc1cccc2cc(C3NCc4c(Cl)cc(Cl)cc4-n4cccc43)oc12.Cl (racemic) [Compound 43]	<4.19	<4.19	4.52	<4.19	<4.19	4.30	<4.19
COc1ccc2oc(C3NCc4c(Cl)cccc4-n4cccc43)cc2c1.Cl (racemic) [Compound 44]	<4.19	4.77	5.31	<4.19	<4.19	5.20	<4.19
COc1ccc2oc(C3NCc4ccc(Cl)cc4-n4cccc43)cc2c1.Cl (racemic) [Compound 45]	<4.19	<4.19	5.32	4.80	<4.19	5.09	4.62
COc1ccc2oc(C3NCc4c(Cl)cc(Cl)cc4-n4cccc43)cc2c1.Cl (racemic) [Compound 46]	<4.19	<4.19	5.12	<4.19	<4.19	<4.19	<4.19
Cl.Fc1ccc2oc(C3NCc4ccc(Cl)cc4-n4cccc43)cc2c1 (racemic) [Compound 48]	<4.19	<4.19	4.30	<4.19	<4.19	5.39	4.84
Cl.Fc1ccc2oc(C3NCc4c(Cl)cc(Cl)cc4-n4cccc43)cc2c1 (racemic) [Compound 49]	<4.19	<4.19	4.82	<4.80	<4.19	5.28	<4.19
Cc1nc2ccc(C3NCc4c(Cl)cccc4-n4cccc43)cc2o1.Cl (racemic) [Compound 50]	<4.19	<4.19	4.56	<4.19	<4.19	4.49	<4.19
Cl.Clc1cc2oc(C3NCc4c(Cl)cccc4-n4cccc43)cc2cn1 (racemic) [Compound 51]	<4.19	4.94	5.40	<4.19	<4.19	5.63	4.45
